#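 Compound exposure: 48 hours, 5 concentrations, 96-well plates. At the TGI there is no net growth.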
# Tests used:
# Experiment in all cases: NCI tumour cell line growth inhibition, 48 h
# SK-OV-3 ovarian = test system: SK-OV-3 ovarian
# HOP-62 NSCLC = test system: HOP-62 NSCLC
# OVCAR-8 ovarian = test system: OVCAR-8 ovarian
# XF 498 CNS = test system: XF 498 CNS
# A549 NSCLC = test system: A549 NSCLC
# UACC-62 melanoma = test system: UACC-62 melanoma
# M14 melanoma = test system: M14 melanoma
# SK-MEL-2 melanoma = test system: SK-MEL-2 melanoma
# SK-MEL-5 melanoma = test system: SK-MEL-5 melanoma
# OVCAR-5 ovarian = test system: OVCAR-5 ovarian
# NCI-H460 lung = test system: NCI-H460 lung
# NCI-H23 lung = test system: NCI-H23 lung
# K-562 leukemia = test system: K-562 leukemia
# RPMI-8226 leukemia = test system: RPMI-8226 leukemia
# COLO 205 colon = test system: COLO 205 colon
# RXF 393 renal = test system: RXF 393 renal
# MOLT-4 leukemia = test system: MOLT-4 leukemia
# SNB-75 CNS = test system: SNB-75 CNS
# SW-620 colon = test system: SW-620 colon
# CCRF-CEM leukemia = test system: CCRF-CEM leukemia
# SN12C renal = test system: SN12C renal
# SNB-78 CNS = test system: SNB-78 CNS
# DMS 114 small cell lung = test system: DMS 114 small cell lung
# OVCAR-4 ovarian = test system: OVCAR-4 ovarian
# LXFL 529 NSCLC = test system: LXFL 529 NSCLC
# MALME-3M melanoma = test system: MALME-3M melanoma
# HCT-116 colon = test system: HCT-116 colon
# HCT-15 colon = test system: HCT-15 colon
# SR leukemia = test system: SR leukemia
# U251 CNS = test system: U251 CNS
# 786-0 renal = test system: 786-0 renal
# UO-31 renal = test system: UO-31 renal
# SNB-19 CNS = test system: SNB-19 CNS
# DMS 273 small cell lung = test system: DMS 273 small cell lung
# SF-295 CNS = test system: SF-295 CNS
# HL-60(TB) leukemia = test system: HL-60(TB) leukemia
# SF-539 CNS = test system: SF-539 CNS
# SK-MEL-28 melanoma = test system: SK-MEL-28 melanoma
# KM20L2 colon = test system: KM20L2 colon
# HT29 colon = test system: HT29 colon
# CAKI-1 renal = test system: CAKI-1 renal
# SF-268 CNS = test system: SF-268 CNS
# EKVX NSCLC = test system: EKVX NSCLC
# LOX IMVI melanoma = test system: LOX IMVI melanoma
# OVCAR-3 ovarian = test system: OVCAR-3 ovarian
# A498 renal = test system: A498 renal
# UACC-257 melanoma = test system: UACC-257 melanoma
# NCI-H522 lung = test system: NCI-H522 lung
# KM12 colon = test system: KM12 colon
# ACHN renal = test system: ACHN renal
# M19-MEL melanoma = test system: M19-MEL melanoma
# IGROV1 ovarian = test system: IGROV1 ovarian
# HCC-2998 colon = test system: HCC-2998 colon
# DLD-1 colon = test system: DLD-1 colon
# HOP-92 NSCLC = test system: HOP-92 NSCLC
# TK-10 renal = test system: TK-10 renal
# NCI-H226 lung = test system: NCI-H226 lung
smiles,measurement,setting,value
CC(=O)OCC(OC(C)=O)C(OC(C)=O)C(OC(C)=O)C(=O)CNn1c(-c2ccccc2Cl)nc2ccc(Br)cc2c1=O (centres undefined),TGI,SK-OV-3 ovarian,> 100 µM
same,TGI,HOP-62 NSCLC,> 100 µM
same,TGI,OVCAR-8 ovarian,> 100 µM
same,TGI,XF 498 CNS,66.2 µM
same,TGI,A549 NSCLC,> 100 µM
same,TGI,UACC-62 melanoma,> 100 µM
same,TGI,M14 melanoma,> 100 µM
same,TGI,SK-MEL-2 melanoma,> 100 µM
same,TGI,SK-MEL-5 melanoma,> 100 µM
same,TGI,OVCAR-5 ovarian,> 100 µM
same,TGI,NCI-H460 lung,> 100 µM
same,TGI,NCI-H23 lung,> 100 µM
same,TGI,K-562 leukemia,> 100 µM
same,TGI,RPMI-8226 leukemia,> 100 µM
same,TGI,COLO 205 colon,> 100 µM
same,TGI,RXF 393 renal,> 100 µM
same,TGI,MOLT-4 leukemia,> 100 µM
same,TGI,SNB-75 CNS,> 100 µM
same,TGI,SW-620 colon,> 100 µM
same,TGI,CCRF-CEM leukemia,> 100 µM
same,TGI,SN12C renal,> 100 µM
same,TGI,SNB-78 CNS,> 100 µM
same,TGI,DMS 114 small cell lung,> 100 µM
same,TGI,OVCAR-4 ovarian,> 100 µM
same,TGI,LXFL 529 NSCLC,> 100 µM
same,TGI,MALME-3M melanoma,> 100 µM
same,TGI,HCT-116 colon,> 100 µM
same,TGI,HCT-15 colon,> 100 µM
same,TGI,SR leukemia,> 100 µM
same,TGI,U251 CNS,> 100 µM
same,TGI,786-0 renal,> 100 µM
same,TGI,UO-31 renal,> 100 µM
same,TGI,SNB-19 CNS,> 100 µM
same,TGI,DMS 273 small cell lung,> 100 µM
same,TGI,SF-295 CNS,> 100 µM
same,TGI,HL-60(TB) leukemia,90.1 µM
same,TGI,SF-539 CNS,> 100 µM
same,TGI,SK-MEL-28 melanoma,> 100 µM
same,TGI,KM20L2 colon,> 100 µM
same,TGI,HT29 colon,> 100 µM
same,TGI,CAKI-1 renal,> 100 µM
same,TGI,SF-268 CNS,> 100 µM
same,TGI,EKVX NSCLC,> 100 µM
same,TGI,LOX IMVI melanoma,> 100 µM
same,TGI,OVCAR-3 ovarian,> 100 µM
same,TGI,A498 renal,> 100 µM
same,TGI,UACC-257 melanoma,> 100 µM
same,TGI,NCI-H522 lung,> 100 µM
same,TGI,KM12 colon,> 100 µM
same,TGI,ACHN renal,> 100 µM
same,TGI,M19-MEL melanoma,> 100 µM
O=C1C2=C(c3ccccc31)C(c1ccc(F)cc1)N1C(=O)CCSC1=N2 (centres undefined),TGI,SK-OV-3 ovarian,> 100 µM
same,TGI,HOP-62 NSCLC,> 100 µM
same,TGI,OVCAR-8 ovarian,> 100 µM
same,TGI,XF 498 CNS,> 100 µM
same,TGI,A549 NSCLC,> 100 µM
same,TGI,UACC-62 melanoma,> 100 µM
same,TGI,IGROV1 ovarian,> 100 µM
same,TGI,M14 melanoma,> 100 µM
same,TGI,SK-MEL-2 melanoma,> 100 µM
same,TGI,SK-MEL-5 melanoma,> 100 µM
same,TGI,OVCAR-5 ovarian,> 100 µM
same,TGI,NCI-H460 lung,> 100 µM
same,TGI,NCI-H23 lung,> 100 µM
same,TGI,HCC-2998 colon,> 100 µM
same,TGI,DLD-1 colon,> 100 µM
same,TGI,K-562 leukemia,> 100 µM
same,TGI,RPMI-8226 leukemia,> 100 µM
same,TGI,COLO 205 colon,> 100 µM
same,TGI,MOLT-4 leukemia,> 100 µM
same,TGI,SNB-75 CNS,> 100 µM
same,TGI,SW-620 colon,> 100 µM
same,TGI,CCRF-CEM leukemia,> 100 µM
same,TGI,SN12C renal,> 100 µM
same,TGI,DMS 114 small cell lung,> 100 µM
same,TGI,OVCAR-4 ovarian,> 100 µM
same,TGI,LXFL 529 NSCLC,> 100 µM
same,TGI,MALME-3M melanoma,> 100 µM
same,TGI,HCT-116 colon,> 100 µM
same,TGI,HCT-15 colon,> 100 µM
same,TGI,U251 CNS,> 100 µM
same,TGI,786-0 renal,> 100 µM
same,TGI,UO-31 renal,> 100 µM
same,TGI,SNB-19 CNS,> 100 µM
same,TGI,DMS 273 small cell lung,> 100 µM
same,TGI,SF-295 CNS,> 100 µM
same,TGI,HL-60(TB) leukemia,> 100 µM
same,TGI,SF-539 CNS,> 100 µM
same,TGI,SK-MEL-28 melanoma,> 100 µM
same,TGI,KM20L2 colon,> 100 µM
same,TGI,HT29 colon,> 100 µM
same,TGI,CAKI-1 renal,> 100 µM
same,TGI,SF-268 CNS,> 100 µM
same,TGI,EKVX NSCLC,> 100 µM
same,TGI,OVCAR-3 ovarian,> 100 µM
same,TGI,A498 renal,> 100 µM
same,TGI,UACC-257 melanoma,> 100 µM
same,TGI,NCI-H522 lung,> 100 µM
same,TGI,HOP-92 NSCLC,97.7 µM
same,TGI,TK-10 renal,> 100 µM
same,TGI,KM12 colon,> 100 µM
same,TGI,NCI-H226 lung,> 100 µM
same,TGI,ACHN renal,> 100 µM
same,TGI,M19-MEL melanoma,> 100 µM
